Four sequences from patent publication US11286278B2, “DPEP-1 binding agents and methods of use” (Arch Biopartners, Inc., priority 2018, dated 2022) can be followed below.

Experiment [1] concerns the target T1, DPEP1 (Homo sapiens, UniProt P16444).
T1 sequence (P16444 17-385): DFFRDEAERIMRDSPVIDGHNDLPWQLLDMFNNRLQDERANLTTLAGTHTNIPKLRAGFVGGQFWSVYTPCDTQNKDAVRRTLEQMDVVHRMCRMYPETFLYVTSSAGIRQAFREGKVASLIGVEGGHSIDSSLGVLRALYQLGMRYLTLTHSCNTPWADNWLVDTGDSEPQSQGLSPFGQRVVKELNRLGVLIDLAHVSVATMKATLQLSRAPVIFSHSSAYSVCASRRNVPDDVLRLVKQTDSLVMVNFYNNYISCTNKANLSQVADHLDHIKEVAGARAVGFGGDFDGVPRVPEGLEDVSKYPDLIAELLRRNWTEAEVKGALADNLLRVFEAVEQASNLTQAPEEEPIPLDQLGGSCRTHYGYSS
The experiment in a line: Phage hit binding to DPEP1 transfected Cos 1 cells. Further details: expressed in transfected cells; host or cells: Cos-1. The settings on record: 10^8 pfu test phage, backscreen DPEP1 vs DPEP2. The protocol: The Ph.D.-12 library was first subtracted 3× against DPEP2 (Creative Biomart; DPEP2-8611H) linked to agarose beads (10 uL of DPEP-agarose in 100 uL Luria broth and 4.5×10^9 pfu of Ph.D.-12 library), wherein the phage remaining in the supernatant was retained, and those that stuck to the subtraction beads were discarded. Second, the library was selected against DPEP1-agarose beads, wherein the phage remaining in the supernatant were discarded and those binding to DPEP1-agarose pellet were retained. The pellet was washed 3× in PBS, then transferred to phage host bacterial culture (ER 2738) to amplify the bound phage, which were then precipitated as per manufacturer's protocol. The recovered phage were then used to repeat the subtraction and selection steps. […] Each plaque was amplified separately in liquid bacterial host culture. […] DNA inserts were translated to the expected protein and sorted to assess the number of repeating sequences. […]
In FIG. 19B, Cos1 cells were transiently transfected with plasmids corresponding to human DPEP1 or DPEP2 (Lipofectamine 2000) 24 hrs prior to plating on collagen-coated (PureCol; Type I collagen from bovine tendon) coverslips. One day later cells were incubated with 10^8 pfu test phage, which were then detected by anti-M13 rabbit serum (in house) with anti-rabbit Alexa 568 secondary. […]

For experiment [2], the system named is monocyte adhesion in kidney. The experiment in a line: Endotoxemia induced kidney inflammation, monocyte adhesion by multiphoton microscopy. The conditions noted are these: LysM gfp/gfp mice, LPS O111:B4 5 mg/kg i.v., 4 hours post LPS, peptide pretreatment. Type of experiment: in vivo, mouse. The protocol: HEK293T cells were transfected with pcDNA vector containing human DPEP1 via Lipofectamine 2000 as per manufacturer protocol. Transfected cells were positively selected for using geneticin resistance and subcloned to generate stably transfected DPEP1 clones. Human renal tubular epithelial cells (hTEC) were isolated and cultured from human kidney nephrectomies. For immunocytochemistry, cells were cultured on collagen coated glass coverslips and fixed by 4% paraformaldehyde. Fixed cells were incubated with biotinylated LSALT peptides (50 μM) with various modifications (glycine linkers and/or amidation) for 1 hour at 37° C. before PBS washes. Bound biotinylated peptide was detected via secondary streptavidin fluorescent conjugate (30 min. incubation at 37° C.) and washed with PBS. […] Bound biotinylated peptide was detected via secondary streptavidin fluorescent conjugate (30 min. incubation at 37° C.) and washed with PBS. Peptide binding was analyzed via flow cytometer. […] Inflammation was quantified by manual counting of monocyte adhesion in single microscopy fields (n=3-6 fields/group; *:p=0.02).
Plasma was separated for each sample and phosphoric acid added to stabilize peptide at each timepoint. Samples were assessed for LSALT and its' metabolites using LC/MS. […] Peptide binding was analyzed via flow cytometer. […]

Experiment [3] deals with LPS activated endothelial cells (HLMVEC). The experiment in a line: Static neutrophil adhesion assay to LPS activated endothelial cells (HLMVEC). The class given is cell-based. The settings on record: human neutrophils, peptides at 100 uM or antibody at 13 ug/mL, LPS 1 ug/mL. As to the method:
(§1) In the top panel, 96-well nickel-coated plates were coated with nothing or his-tagged recombinant human DPEP1 (9 pmol/well in PBS, incubated for 1 hr at room temp), washed out 3× with PBS +0.05% Tween 20, and blocked for 1 hr at room temp with cell culture media (Cell Applications Inc. Cat#111-500). Freshly isolated human neutrophils were added to the wells at 5×10^4/mL, 100 uL volume, with the indicated peptides at 0.45uM. After 30 minutes at 37° C., wells were washed out 3× with PBS, and fixed with 3.7% formaldehyde in PBS. Two fields-of-view were photographed at 4× magnification and all the cells counted were recorded for each well, done in triplicate. In the middle panel, Cos1 cells were transfected with an empty vector (Mock) or a vector encoding wild type human DPEP1, two days prior. One day prior, transfected cells were plated at near confluency in a 24-well plate. On the day of the experiment, freshly isolated human neutrophils were added to the wells at 1×10^5/mL, 0.5mL volume, with the indicated peptides at 100 uM. After 30 minutes at 37° C., wells were washed out 3× with culture media, then fixed in 3.7% formaldehyde in PBS. Five fields-of-view were photographed at 20× magnification and averaged for each well, done in triplicate. In the bottom panel, two days prior, 24-well plates were coated with Attachment Factor Solution (Cell Applications Inc. Cat#123-500). […]

Experiment [4] deals with Cos 1 transfected cells (human DPEP1). Kind of experiment: Static neutrophil adhesion assay to DPEP1 transfected Cos1 cells. Type of experiment: cell-based. The settings on record: human neutrophils, peptides at 100 uM, 30 minutes. The protocol: as §1
Experiment [5] has as its target T1, DPEP1. Kind of experiment: Static neutrophil adhesion assay to recombinant hDPEP1. The settings on record: human neutrophils, peptides at 0.45uM, 30 minutes. Further details: purchased Creative Biomart DPEP1-77H. Type of experiment: cell-based. As to the method: as §1

Take KHMHWHPPALNT: in experiment [1], the “phage binding to DPEP1 transfected cells” value is reported as “brightest binding to DPEP1 transfected cells”.

“GGGLSALTPSPSWLKYKAL [Peptide G2, tri-glycine LSALT (G2)]”: the “endotoxemia induced kidney inflammation (monocyte adhesion)” value in experiment [2] is listed as “can inhibit endotoxemia induced kidney inflammation”.

As for HIPKSPIQIPII, in experiment [3], the “neutrophil adhesion to LPS activated endothelial cells (HLMVEC)” value was “able to inhibit neutrophil adhesion”.

For the sequence KHMHWHPPALNT [NeoH], the “neutrophil adhesion to DPEP1 transfected Cos 1 cells” value in experiment [4] is recorded as “able to inhibit neutrophil adhesion”. Further, the “neutrophil adhesion to LPS activated endothelial cells (HLMVEC)” value in experiment [3] is “able to inhibit neutrophil adhesion”. The “neutrophil adhesion to recombinant hDPEP1” value in experiment [5] was “able to inhibit neutrophil adhesion”.
